# Tests used:
# [1] = biological target: T1, CXCR6 (Homo sapiens, UniProt O00574); experiment: NanoBRET screen HiBiT-CXCR6 in HEK293; format: binding
# T1 construct: purchased Promega (in-house HiBiT-GPCR construct library, NanoBRET)
# Experimental: (§1) Each tracer candidate was screened across the entire library of HiBiT-GPCR constructs using NanoBRET as the detection modality. As depicted in Figure 4A, the specificity of interactions was evaluated through decrease in BRET due to competitive displacement of a bound tracer by excess parental compound. Each tracer was analyzed for binding to each HiBiT-GPCR fusion in the absence and in the presence of competing parental compound. Briefly, HEK293 cells were transfected with HiBiT-GPCR constructs diluted into promoterless DNA to reduce expression and maximize translocation to the cell surface. Each tracer candidate was then screened at concentrations of 1 μM and 0.1 μM across cells expressing these fusions. Cells were treated for 1.5 h with tracer either alone or in the presence of 20 μM competing parental compound (i.e., control). BRET was measured upon addition of purified LgBiT and subsequent complementation with HiBiT genetically fused to a GPCR. The specificity of interactions was assessed through a decrease in BRET signal due to competitive displacement of the bound tracer. To further gauge the robustness of these interactions, the fold response over the control (i.e., BRETtracer/BRETcontrol) was calculated. We chose a 1.5-fold response, which translates to ≥7-fold signal over noise as the minimal threshold required to score an interaction as positive. […]. Below we highlight the screening results obtained for our exemplary fluorescent tracers based on Clozapine, Amitriptyline and AZD1283.
# (§2) HiBiT-GPCR DNA constructs were diluted in 10 mM Tris pH 8 to a final concentration of 0.01 μg/μL, arrayed in 96-well plates and stored at −20 °C. For transfection, HEK293 cells were suspended in Opti-MEM (without phenol red) supplemented with 2% fetal bovine serum (Seradigm) and 100 units/mL penicillin–streptomycin (Gibco) at a final concentration of 220,000 cells/mL and dispensed into white 96-well plates at 90 μL/well. Subsequent transfections and screens were carried using an Agilent Bravo Automated Liquid Handling Platform. First, the 96-well HiBiT DNA arrays were diluted 25-fold in Opti-MEM (without serum or phenol red) to a final concentration of 0.0004 μg/μL and 20 μL of the diluted DNAs were transferred into new 96-well plates. Next, promoterless carrier DNA (1 μg/μL) was diluted 25-fold (0.04 μg/μL) and then dispensed into the diluted arrays at 20 μL/well. Following brief mixing, Viafect transfection reagent (Promega) diluted 16-fold into Opti-MEM was dispensed into the plates at 40 μL/well. After mixing by pipetting, plates were incubated for 10 min on the pipetting station deck. The DNA-transfection reagent complexes were then added to plates containing cells. To facilitate the screen, 10 μL of DNA-transfection reagent complexes were added in duplicates to the top 4 and bottom 4 rows, resulting in two identical 48-well arrays per plate. Plates with transfected cells were incubated for 18–20 h at 37 °C/5% CO2. A screen of each tracer across the entire library using two different concentrations requires duplicate plates of transfected cells. Depending on the number of tracers being screened, transfections can be scaled up using the same ratios. The next day, for each tracer, four 20× screening solutions in tracer dilution buffer (Promega) were prepared: two duplicates at final concentration of 20 μM and two duplicates at a final concentration of 2 μM. A competing unmodified compound was added to one of each duplicate at a final concentration of 400 μM. The four resulting solutions were diluted 4-fold in Opti-MEM without serum or phenol red to generate 5× solutions (5 µM and 0.5 µM tracer +/− 100 μM competing compound). To screen the library, a BioTek MultiFlo FX liquid dispenser was used to dispense 22.5 µL of tracer solution to the top 4 rows and 22.5 µL tracer + competing compound solution to the 4 bottom rows. Plates were briefly mixed on an orbital shaker and incubated for 1.5 h at room temperature. […]
# [2] = biological target: T2, NPFFR2 (Homo sapiens, UniProt Q9Y5X5); experiment: NanoBRET screen HiBiT-NPFFR2 in HEK293; format: binding
# T2 construct: purchased Promega (in-house HiBiT-GPCR construct library, NanoBRET)
# T2 sequence (Q9Y5X5 whole entry): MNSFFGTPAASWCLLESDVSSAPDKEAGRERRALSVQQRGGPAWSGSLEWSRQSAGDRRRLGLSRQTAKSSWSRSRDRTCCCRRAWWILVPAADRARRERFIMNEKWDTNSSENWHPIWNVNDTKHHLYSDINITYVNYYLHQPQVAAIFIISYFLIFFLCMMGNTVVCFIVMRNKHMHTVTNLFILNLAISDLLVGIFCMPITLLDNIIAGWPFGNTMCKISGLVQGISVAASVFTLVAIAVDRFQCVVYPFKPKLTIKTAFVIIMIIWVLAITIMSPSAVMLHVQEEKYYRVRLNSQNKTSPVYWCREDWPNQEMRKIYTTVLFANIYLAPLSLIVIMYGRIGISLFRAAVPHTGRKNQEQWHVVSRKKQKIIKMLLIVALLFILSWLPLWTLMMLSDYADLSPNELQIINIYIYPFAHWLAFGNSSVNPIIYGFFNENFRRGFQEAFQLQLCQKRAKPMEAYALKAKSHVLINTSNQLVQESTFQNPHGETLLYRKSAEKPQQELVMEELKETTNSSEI
# Experimental: as §1, §2
# T1 sequence (O00574 whole entry): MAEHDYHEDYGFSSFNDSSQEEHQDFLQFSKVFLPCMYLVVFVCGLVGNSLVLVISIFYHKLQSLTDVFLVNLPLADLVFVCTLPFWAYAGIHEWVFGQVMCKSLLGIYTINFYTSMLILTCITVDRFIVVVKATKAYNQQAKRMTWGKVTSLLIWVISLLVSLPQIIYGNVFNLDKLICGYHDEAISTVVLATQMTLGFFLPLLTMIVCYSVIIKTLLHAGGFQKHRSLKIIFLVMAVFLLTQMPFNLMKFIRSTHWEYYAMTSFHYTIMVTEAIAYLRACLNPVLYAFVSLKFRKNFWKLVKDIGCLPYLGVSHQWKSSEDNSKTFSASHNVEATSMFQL
Structure (SMILES),"NanoBRET Fold Response ([1]; CXCR6, tracer 0.1μM)","NanoBRET Fold Response ([1]; CXCR6, tracer 1μM)","NanoBRET Fold Response ([2]; NPFFR2, tracer 0.1μM)","NanoBRET Fold Response ([2]; NPFFR2, tracer 1μM)",other results
Cc1nc2n(c(=O)c1CCN1CCC(c3noc4cc(F)ccc34)CC1)CCCC2OC(=O)NCCOCCOCCOCCOCCNC(=O)CCc1ccc2n1[B-](F)(F)[N+]1=C(c3ccc[nH]3)C=CC1=C2 (stereo not drawn) [Risperidone-2-NB590],1.00,1.24,1.02,0.98,
CCOC(=O)c1cc(C#N)c(N2CCC(C(=O)NS(=O)(=O)Cc3ccccc3/C=C/C(=O)NCCNC(=O)CCc3ccc4n3[B-](F)(F)[N+]3=C(c5ccc[nH]5)C=CC3=C4)CC2)nc1C [AZD1283-1-NB590],,,,,"NanoBRET Fold Response ([1]; CXCR6, 0.1μM): 0.89; NanoBRET Fold Response ([1]; CXCR6, 1μM): 0.29; NanoBRET Fold Response ([2]; NPFFR2, 0.1μM): 1.01; NanoBRET Fold Response ([2]; NPFFR2, 1μM): 1.15"
Cc1cc2c(s1)Nc1ccccc1N=C2N1CCN(CCCNC(=O)CCOCCOCCOCCOCCNC(=O)CCc2ccc3n2[B-](F)(F)[N+]2=C(c4ccc[nH]4)C=CC2=C3)CC1 [Olanzapine-a-2-NB590],1.00,0.98,0.98,1.04,
COc1ccccc1N1CCN(CCCCN2C(=O)c3ccc(CNC(=O)CCOCCNC(=O)c4ccc(CNC(=O)CCc5ccc6n5[B-](F)(F)[N+]5=C(c7ccc[nH]7)C=CC5=C6)cc4)cc3C2=O)CC1 [NAN-190-3-NB590],1.15,0.93,1.02,1.01,
CC(C)N(CC[C@H](c1ccccc1)c1cc(CCNC(=O)CCOCCOCCOCCOCCNC(=O)CCc2ccc3n2[B-](F)(F)[N+]2=C(c4ccc[nH]4)C=CC2=C3)ccc1O)C(C)C [Tolterodine-2-NB590],0.89,0.91,0.98,1.06,
CN(C)CCC=C1c2ccccc2CCc2ccc(C(=O)NCCNC(=O)CCOCCOCCOCCOCCNC(=O)CCc3ccc4n3[B-](F)(F)[N+]3=C(c5ccc[nH]5)C=CC3=C4)cc21 [Amitriptyline-b-2-NB590],,,,,"NanoBRET Fold Response ([1]; tracer at 0.1μM, listed as amitriptyline-b-2-NB590): 0.95; NanoBRET Fold Response ([1]; tracer at 1μM, listed as amitriptyline-b-2-NB590): 1.02; NanoBRET Fold Response ([2]; tracer at 0.1μM): 1.00; NanoBRET Fold Response ([2]; tracer at 1μM): 1.03"
O=C(CCOCCOCCOCCOCCNC(=O)CCc1ccc2n1[B-](F)(F)[N+]1=C(c3ccc[nH]3)C=CC1=C2)NCCCN1CCN(C2=Nc3ccccc3Oc3ccc(Cl)cc32)CC1 [Loxapine-a-2-NB590],1.00,1.01,1.05,1.03,
CN(C)CCC=C1c2ccccc2CCc2ccc(C(=O)NCCNC(=O)CCOCCOCCOCCOCCNC(=O)CCc3ccc4n3[B-](F)(F)[N+]3=C(c5ccc[nH]5)C=CC3=C4)cc21 [Amitriptyline-a-2-NB590],,,,,NanoBRET Fold Response ([1]; tracer at 0.1μM): 1.07; NanoBRET Fold Response ([1]; tracer at 1μM): 0.94
O=C(CCc1ccc2n1[B-](F)(F)[N+]1=C(c3ccc[nH]3)C=CC1=C2)NCCOCCOCCNC(=O)OCCOCCN1CCN(C2=Nc3ccccc3Sc3ccccc32)CC1 [Quetiapine-a-2-NB590],0.98,1.12,0.99,0.97,
COc1ccccc1N1CCN(CCCCN2C(=O)c3ccc(CNC(=O)CCOCCOCCOCCOCCNC(=O)CCc4ccc5n4[B-](F)(F)[N+]4=C(c6ccc[nH]6)C=CC4=C5)cc3C2=O)CC1 [NAN-190-2-NB590],0.94,1.02,0.97,,
CN1CCN(C2=Nc3cc(Cl)ccc3N(CC(=O)NCCOCCOCCOCCOCCNC(=O)CCc3ccc4n3[B-](F)(F)[N+]3=C(c5ccc[nH]5)C=CC3=C4)c3ccccc32)CC1 [Clozapine-c-2-NB590],,,,,"NanoBRET Fold Response ([1]; CXCR6, 0.1μM tracer): 1.01; NanoBRET Fold Response ([1]; CXCR6, 1μM tracer): 1.04; NanoBRET Fold Response ([2]; NPFFR2, 0.1μM tracer): 0.98; NanoBRET Fold Response ([2]; NPFFR2, 1μM tracer): 0.99"
COc1ccc2[nH]c(-c3ccc(CNC(=O)CCOCCOCCOCCOCCNC(=O)CCc4ccc5n4[B-](F)(F)[N+]4=C(c6ccc[nH]6)C=CC4=C5)cc3)c(CCNC(C)=O)c2n1 [AzomelatoninICO9-2-NB590],,,,,NanoBRET Fold Response ([1]; 0.1μM tracer): 0.98; NanoBRET Fold Response ([1]; 1μM tracer): 1.16; NanoBRET Fold Response ([2]; 0.1μM tracer): 0.91; NanoBRET Fold Response ([2]; 1μM tracer): 1.06
O=C(CCOCCOCCOCCOCCNC(=O)CCc1ccc2n1[B-](F)(F)[N+]1=C(c3ccc[nH]3)C=CC1=C2)NCCCN1CCN(C2=Nc3cc(Cl)ccc3Nc3ccccc32)CC1 [Clozapine-a-2-NB590],,,,,"NanoBRET Fold Response ([1]; CXCR6, 0.1μM tracer): 0.98; NanoBRET Fold Response ([1]; CXCR6, 1μM tracer): 1.08; NanoBRET Fold Response ([2]; NPFFR2, 0.1μM tracer): 1.00; NanoBRET Fold Response ([2]; NPFFR2, 1μM tracer): 0.97"
CCCn1c(=O)c2[nH]c(-c3ccc(OCC(=O)NCCNC(=O)CCOCCNC(=O)c4ccc(CNC(=O)CCc5ccc6n5[B-](F)(F)[N+]5=C(c7ccc[nH]7)C=CC5=C6)cc4)cc3)nc2n(CCC)c1=O [XAC-3-NB590],1.06,1.09,1.02,1.02,
O=C(CCc1ccc2n1[B-](F)(F)[N+]1=C(c3ccc[nH]3)C=CC1=C2)NCc1ccc(C(=O)NCCOCCOCCNCC(O)COc2cccc3ccccc23)cc1 (stereo not drawn) [Propranolol-3-NB590],,,,,"NanoBRET Fold Response ([1]; CXCR6, 0.1μM): 0.99; NanoBRET Fold Response ([1]; CXCR6, 1μM): 0.88; NanoBRET Fold Response ([2]; NPFFR2, 0.1μM): 1.01; NanoBRET Fold Response ([2]; NPFFR2, 1μM): 1.01"
O=C(CCc1ccc2n1[B-](F)(F)[N+]1=C(c3ccc[nH]3)C=CC1=C2)NCc1ccc(C(=O)NCCOCCC(=O)N[C@@H]2CC[C@@]3(O)[C@H]4Cc5ccc(O)c6c5[C@@]3(CCN4CC3CC3)[C@H]2O6)cc1 [Naltrexone-3-NB590],1.02,0.91,1.01,0.95,
CN(CCC=C1c2ccccc2CCc2ccccc21)C(=O)CCOCCOCCOCCOCCNC(=O)CCc1ccc2n1[B-](F)(F)[N+]1=C(c3ccc[nH]3)C=CC1=C2 [Amitriptyline-e-2-NB590],,,,,NanoBRET Fold Response ([1]; tracer at 1μM): 0.98
N#CN=C(NCCCOc1cccc(CN2CCCCC2)c1)NCCNC(=O)CCOCCOCCOCCOCCNC(=O)CCc1ccc2n1[B-](F)(F)[N+]1=C(c3ccc[nH]3)C=CC1=C2 [Aminopotentidine-2-NB590],1.06,1.03,0.98,1.02,
COc1ccc2c(n1)c(CCNC(C)=O)cn2CCNC(=O)CCc1ccc2n1[B-](F)(F)[N+]1=C(c3ccc[nH]3)C=CC1=C2 [Azamelatonin-1-NB590],,,,,NanoBRET Fold Response ([1]; 0.1μM tracer): 1.07; NanoBRET Fold Response ([1]; 1μM tracer): 0.89; NanoBRET Fold Response ([2]; 0.1μM tracer): 1.16; NanoBRET Fold Response ([2]; 1μM tracer): 0.97
CC(C)N(CC[C@H](c1ccccc1)c1cc(CCNC(=O)c2ccc(CNC(=O)CCc3ccc4n3[B-](F)(F)[N+]3=C(c5ccc[nH]5)C=CC3=C4)cc2)ccc1O)C(C)C [Tolterodine-BZ-NB590],0.99,0.98,1.00,1.02,
CN1CCN(C2=Nc3cc(Cl)ccc3Nc3ccc(CNC(=O)CCOCCOCCOCCOCCNC(=O)CCc4ccc5n4[B-](F)(F)[N+]4=C(c6ccc[nH]6)C=CC4=C5)cc32)CC1 [Clozapine-b-2-NB590],,,,,"NanoBRET Fold Response ([1]; CXCR6, 0.1μM tracer): 1.01; NanoBRET Fold Response ([1]; CXCR6, 1μM tracer): 1.00; NanoBRET Fold Response ([2]; NPFFR2, 0.1μM tracer): 1.02; NanoBRET Fold Response ([2]; NPFFR2, 1μM tracer): 1.00"
